Reference: the supplement of paper PMC12613149

Experiments:
[1] = collision cross section (TIMS, N2 drift gas) of the primary ion; higher = larger gas-phase ion size
[2] = reversed-phase LC retention time (C18, 15 min MeOH gradient); higher = more hydrophobic / later elution
[3] = ionization mode: ESI+, ion species: [M+H]+
[4] = ionization mode: ESI-, ion species: [M-H]-
[5] = ionization mode: ESI+, ion species: [M]+

SMILES	collision cross section [1, 3]	reversed-phase LC retention time [2, 3]	collision cross section [1, 4]	reversed-phase LC retention time [2, 4]	collision cross section [1, 5]	reversed-phase LC retention time [2, 5]
CN(C)C(=O)Nc1ccc(Oc2ccc(Cl)cc2)cc1 [Chloroxuron]	175 Å²	14.6 min	–	–	–	–
N#Cc1cc(Cl)c(O)c(Cl)c1 [Chloroxynil]	–	–	125.1 Å²	6.76 min	–	–
CN(C)CCC(c1ccc(Cl)cc1)c1ccccn1 (stereo unspecified) [Chlorpheniramine]	164.13 Å²	10.8 min	–	–	–	–
CC(C)OC(=O)Nc1cccc(Cl)c1 [Chlorpropham]	–	–	147.2 Å²	14.7 min	–	–
COc1nc(C)nc(NC(=O)NS(=O)(=O)c2ccccc2Cl)n1 [Chlorsulfuron]	177.23 Å²	12.1 min	177.5 Å²	9.09 min	–	–
C[C@H](CCC(=O)O)[C@H]1CC[C@H]2[C@@H]3[C@H](O)C[C@@H]4C[C@H](O)CC[C@]4(C)[C@H]3C[C@H](O)[C@]12C [Cholic acid]	–	–	203.99 Å²	14.7 min	–	–
O=c1cc(-c2ccccc2)oc2cc(O)cc(O)c12 [Chrysin]	154.65 Å²	14.1 min	156.4 Å²	12.8 min	–	–
CN=C(NC#N)NCCSCc1nc[nH]c1C [Cimetidine]	158.06 Å²	6.06 min	165.63 Å²	8.43 min	–	–
O=C(O)c1cn(C2CC2)c2cc(N3CCNCC3)c(F)cc2c1=O [Ciprofloxacin]	175.82 Å²	8.22 min	–	–	–	–
CN(C)CCCC1(c2ccc(F)cc2)OCc2cc(C#N)ccc21 (stereo unspecified) [Citalopram]	182.06 Å²	11.3 min	–	–	–	–
CCC1OC(=O)C(C)C(OC2CC(C)(OC)C(O)C(C)O2)C(C)C(OC2OC(C)CC(N(C)C)C2O)C(C)(OC)CC(C)C(=O)C(C)C(O)C1(C)O (stereo unspecified) [Clarithromycin]	267.43 Å²	13.9 min	–	–	–	–
CC(C)(C)C(=O)C(Oc1ccc(Cl)cc1)n1ccnc1 (stereo unspecified) [Climbazole]	172.6 Å²	13.1 min	–	–	–	–
CCCC1CC(C(=O)NC(C(C)Cl)C2OC(SC)C(O)C(O)C2O)N(C)C1 (stereo unspecified) [Clindamycin]	203.51 Å²	11.5 min	200.27 Å²	16.1 min	–	–
CCC(=O)O[C@]1(C(=O)CCl)[C@@H](C)C[C@H]2[C@@H]3CCC4=CC(=O)C=C[C@]4(C)[C@@]3(F)[C@@H](O)C[C@@]21C [Clobetasol propionate]	207.98 Å²	15.2 min	210.25 Å²	15.6 min	–	–
C[C@H]1C[C@H]2[C@@H]3CCC4=CC(=O)C=C[C@]4(C)[C@@]3(F)[C@@H](O)C[C@]2(C)[C@@]1(O)C(=O)CCl [Clobetasol]	–	–	194.82 Å²	14.4 min	–	–
CC1(C)CON(Cc2ccccc2Cl)C1=O [Clomazon]	146.86 Å²	13.5 min	–	–	–	–
Clc1cccc(Cl)c1NC1=NCCN1 [Clonidine]	145.06 Å²	6.83 min	145.07 Å²	9.84 min	–	–
COC(=O)C(c1ccccc1Cl)N1CCc2sccc2C1 (stereo unspecified) [Clopidogrel]	170.12 Å²	15.4 min	–	–	–	–
CN/C(=N\[N+](=O)[O-])NCc1cnc(Cl)s1 [Clothianidin]	153.61 Å²	8.59 min	150.63 Å²	8.62 min	–	–
CN1CCN(C2=Nc3cc(Cl)ccc3Nc3ccccc32)CC1 [Clozapine]	179.65 Å²	11.6 min	–	–	–	–

SMILES	collision cross section [1, 3]	reversed-phase LC retention time [2, 3]	collision cross section [1, 4]	reversed-phase LC retention time [2, 4]	collision cross section [1, 5]	reversed-phase LC retention time [2, 5]
CCC[C@H]1CCCCN1 [Coniine]	129.06 Å²	6.79 min	–	–	–	–
C[C@]12CCC(=O)C=C1CC[C@@H]1[C@@H]2C(=O)C[C@@]2(C)[C@H]1CC[C@]2(O)C(=O)CO [Cortisone]	181.22 Å²	16.9 min	–	–	–	–
O=P1(N(CCCl)CCCl)NCCCO1 (stereo unspecified) [Cyclophosphamide]	147.43 Å²	10.5 min	–	–	–	–
CC(C1CC1)C(O)(Cn1cncn1)c1ccc(Cl)cc1 (stereo unspecified) [Cyproconazole_1]	170.22 Å²	14.4 min	–	–	–	–
CC(C1CC1)C(O)(Cn1cncn1)c1ccc(Cl)cc1 (stereo unspecified) [Cyproconazole_2]	170.04 Å²	14.6 min	–	–	–	–
Nc1nc(N)nc(NC2CC2)n1 [Cyromazine]	134.76 Å²	3.4 min	–	–	–	–
CCS(=O)CCSP(=O)(OC)OC (stereo unspecified) [Demeton-S-methyl sulfoxide]	142.73 Å²	7.58 min	–	–	–	–
COc1ccc2c(c1)[C@]13CCCC[C@@H]1[C@H](C2)N(C)CC3 [Dextromethorphan]	166.66 Å²	11.4 min	–	–	–	–
CCCCOP(=O)(O)OCCCC [Di-n-butyl phosphate]	–	–	151.01 Å²	11.6 min	–	–
CCCCCCOC(=O)c1ccccc1C(=O)OCCCCCC [Di-n-hexyl phthalate]	195.44 Å²	18.2 min	–	–	–	–
CCCCCOC(=O)c1ccccc1C(=O)OCCCCC [Di-n-pentylphthalate]	182.77 Å²	17.4 min	–	–	–	–
CN1C(=O)CN=C(c2ccccc2)c2cc(Cl)ccc21 [Diazepam]	165.95 Å²	14.2 min	–	–	–	–
CCOP(=S)(OCC)Oc1cc(C)nc(C(C)C)n1 [Diazinon]	172.11 Å²	15.6 min	–	–	–	–
CCCCOC(=O)c1ccccc1C(=O)OCCCC [Dibutylphthalate]	169.98 Å²	16.4 min	–	–	–	–
Oc1ccc(Cl)cc1Cc1cc(Cl)ccc1O [Dichlorophen]	–	–	155.04 Å²	15.3 min	–	–
COP(=O)(OC)OC=C(Cl)Cl [Dichlorvos]	139.26 Å²	9.07 min	–	–	–	–
Oc1cc(Cl)ccc1Oc1ccc(Cl)cc1 [Diclosan]	–	–	152.57 Å²	16.2 min	–	–
O=C(OC1CCCCC1)c1ccccc1C(=O)OC1CCCCC1 [Dicyclohexylphthalate]	187.61 Å²	17.5 min	–	–	–	–
CCCCCCCCCC[N+](C)(C)CCCCCCCCCC [Didecyldimethylammonium]	–	–	–	–	211.39 Å²	17.3 min

Further lines, with some results ahead:

collision cross section [1, 3]	reversed-phase LC retention time [2, 3]	collision cross section [1, 4]	reversed-phase LC retention time [2, 4]	SMILES	collision cross section [1, 5]	reversed-phase LC retention time [2, 5]
143.26 Å²	3.34 min	–	–	CN1C(=O)CC[C@H]1c1cccnc1 [Cotinine]	–	–
156.86 Å²	12.5 min	156.09 Å²	11.7 min	O=c1oc2cc(O)ccc2c2oc3cc(O)ccc3c12 [Coumestrol]	–	–
144.88 Å²	14 min	–	–	C/C=C/C(=O)N(CC)c1ccccc1C [Crotamiton]	–	–
–	–	138.05 Å²	6.16 min	O=S(=O)(O)NC1CCCCC1 [Cyclamate]	–	–
190.49 Å²	14.6 min	190.87 Å²	14.9 min	CC(=O)[C@@]1(O)CC[C@H]2[C@@H]3C=C(Cl)C4=CC(=O)[C@@H]5C[C@@H]5[C@]4(C)[C@H]3CC[C@@]21C [Cyproterone]	–	–
166.39 Å²	16.9 min	–	–	CCCCCCCCn1sc(Cl)c(Cl)c1=O [DCOIT]	–	–
151.03 Å²	10.8 min	157.09 Å²	8.24 min	CCN(CC)C(=O)c1cccc(C(=O)O)c1 [DEET carboxylic acid]	–	–
142.86 Å²	13 min	–	–	CCN(CC)C(=O)c1cccc(C)c1 [DEET]	–	–
228.01 Å²	20.1 min	–	–	CC(C)CCCCCCOC(=O)C1CCCCC1C(=O)OCCCCCCC(C)C (stereo unspecified) [DINCH]	–	–
155.18 Å²	11.1 min	157.58 Å²	9.78 min	O=c1c(-c2ccc(O)cc2)coc2cc(O)ccc12 [Daidzein]	–	–
–	–	159.61 Å²	14.9 min	CCCCCCCCCCOS(=O)(=O)O [Decylsulfate]	–	–
–	–	184.43 Å²	16.5 min	CC(C)c1ccc2c(c1)CC[C@H]1[C@](C)(C(=O)O)CCC[C@]21C [Dehydroabietic acid]	–	–
–	–	203 Å²	15.8 min	C[C@H](CCC(=O)O)[C@H]1CC[C@H]2[C@@H]3CC[C@@H]4C[C@H](O)CC[C@]4(C)[C@H]3C[C@H](O)[C@]12C [Deoxycholic acid]	–	–
159.85 Å²	14 min	–	–	CCNC(=O)C(C)Oc1cccc2ccccc12 (stereo unspecified) [Desethyl-napropamide]	–	–
144.23 Å²	12 min	–	–	CC(C)(C)Nc1nc(N)nc(Cl)n1 [Desethylterbutylazine]	–	–
164.14 Å²	12.9 min	–	–	CNCCCN1c2ccccc2CCc2ccccc21 [Desipramine]	–	–
176.94 Å²	11.7 min	–	–	Clc1ccc2c(c1)CCc1cccnc1C2=C1CCNCC1 [Desloratadine]	–	–
200.7 Å²	13.6 min	–	–	CC1(C)O[C@@H]2C[C@H]3[C@@H]4CCC5=CC(=O)C=C[C@]5(C)[C@H]4[C@@H](O)C[C@]3(C)[C@]2(C(=O)CO)O1 [Desonide]	–	–
171.64 Å²	14.8 min	–	–	CCCCC(CC)CNCC(CC)CCCC (stereo unspecified) [Di(2-ethylhexyl)amine]	–	–
224 Å²	19.6 min	–	–	CC(CCOC(=O)c1ccccc1C(=O)OCCC(C)CC(C)(C)C)CC(C)(C)C (stereo unspecified) [Di-isononyl phthalate]	–	–
179.28 Å²	4.56 min	–	–	CC(=O)Nc1c(I)c(NC(C)=O)c(I)c(C(=O)O)c1I [Diatrizoate]	–	–
185.48 Å²	18 min	–	–	CCCCOC(=O)CCCCCCCCC(=O)OCCCC [Dibutyl sebacate]	–	–
159.21 Å²	15.3 min	161.99 Å²	13.3 min	O=C(O)Cc1ccccc1Nc1c(Cl)cccc1Cl [Diclofenac]	–	–
201.58 Å²	14.2 min	189.02 Å²	14.2 min	O=C(CC(C(=O)OC1CCCCC1)S(=O)(=O)O)OC1CCCCC1 (stereo unspecified) [Dicyclohexyl sulfosuccinate]	–	–
160.65 Å²	13.9 min	163.68 Å²	14.3 min	O=C(NC1CCCCC1)NC1CCCCC1 [Dicyclohexylurea]	–	–
